# Laboratory results as given in PMC8229862, “Elaiophylin Is a Potent Hsp90/ Cdc37 Protein Interface Inhibitor with K-Ras Nanocluster Selectivity” (Biomolecules, 2021).
# Tests used:
# Hsp90α = molecular target: T1, Hsp90α (Homo sapiens, UniProt P07900); assay: co-immunoprecipitation of Cdc37 with Hsp90α from cells treated with […] for […] h; assay type: cell-based
# T1 construct: gene HSP90AA1; endogenous Hsp90 in MDA-MB-231 or MIA PaCa-2 cells; with Cdc37
# [1] = molecular target: T2, Hsp90 (N-terminal domain) (Homo sapiens, UniProt P07900); assay: lysate-based split Renilla luciferase Hsp90/Cdc37 interaction assay; supported by co-immunoprecipitation; assay type: biochemical
# T2 construct: gene HSP90AA1; N-terminal fragment of Hsp90 (NRL-N-Hsp90); with Cdc37
SMILES,co-immunoprecipitation of Cdc37 with Hsp90α from cells treated with 10 μM for 24 (Hsp90α),IC50 [1]
C/C1=C\[C@H](C)C[C@H](C)[C@H](Cc2cnco2)OC(=O)/C(C)=C/[C@H](C)C[C@H](C)[C@H](Cc2cnco2)OC1=O [conglobatin A],Both elaiophylin and conglobatin A treatment reduced the amount of co-precipitated Cdc37,–
CC[C@@H]1[C@@H](C)O[C@@](O)([C@@H](C)[C@H](O)[C@H](C)[C@H]2OC(=O)/C=C/C=C/[C@H](C)[C@@H]([C@@H](C)[C@@H](O)[C@H](C)[C@@]3(O)C[C@@H](O[C@H]4C[C@H](O)[C@H](O)[C@H](C)O4)[C@H](CC)[C@@H](C)O3)OC(=O)/C=C/C=C/[C@@H]2C)C[C@H]1O[C@H]1C[C@H](O)[C@H](O)[C@H](C)O1 [elaiophylin],–,11 ± 4 µM
